Consider one compound from ChEMBL document CHEMBL5728589, “Inhibitors of RIP1 kinase and methods of use thereof” (2021).

pKi: −log10 of the molar value. “And” between values parts separate entries of the source, which are not always exact repeats. Equal entries are not always repeated.

This experiment deals with T1, Receptor-interacting serine/threonine-protein kinase 1 (Homo sapiens, UniProt Q13546).
T1 sequence (Q13546 whole entry): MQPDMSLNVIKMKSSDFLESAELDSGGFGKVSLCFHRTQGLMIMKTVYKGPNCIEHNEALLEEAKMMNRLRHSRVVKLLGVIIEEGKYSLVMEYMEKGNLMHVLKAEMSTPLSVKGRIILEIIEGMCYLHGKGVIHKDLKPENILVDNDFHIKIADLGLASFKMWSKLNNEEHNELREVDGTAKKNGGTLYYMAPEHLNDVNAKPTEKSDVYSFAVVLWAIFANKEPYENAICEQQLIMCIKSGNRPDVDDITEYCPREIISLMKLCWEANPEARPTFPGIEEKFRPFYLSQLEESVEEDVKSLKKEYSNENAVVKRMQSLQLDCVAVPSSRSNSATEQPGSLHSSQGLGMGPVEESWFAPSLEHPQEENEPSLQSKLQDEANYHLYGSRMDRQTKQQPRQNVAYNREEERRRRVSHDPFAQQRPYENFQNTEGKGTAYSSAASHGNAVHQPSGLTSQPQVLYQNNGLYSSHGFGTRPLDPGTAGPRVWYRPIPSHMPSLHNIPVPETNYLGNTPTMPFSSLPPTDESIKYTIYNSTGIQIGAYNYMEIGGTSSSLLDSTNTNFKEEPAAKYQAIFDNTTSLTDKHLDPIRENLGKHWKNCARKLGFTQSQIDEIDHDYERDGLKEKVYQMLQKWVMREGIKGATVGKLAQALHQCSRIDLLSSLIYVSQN
Nature of the experiment: Enzyme Assay: The ability of the receptor interacting protein kinase (RIPK1) to catalyze the hydrolysis of adenosine-5′-triphosphate (ATP) is monitored using the Transcreener ADP (adenosine-5′-diphosphate) assay (BellBrook Labs).

On to `CCC(F)(F)[C@H]1CCc2nc(C(=O)N[C@H]3CCc4cc(F)cc(F)c4NC3=O)nn21`, for which the pKi – broadly, the negative decadic logarithm of the Ki, by convention in mol/L – is 7.68 and 7.85.
